In patent US8703951B2, “Synthesis of 4H-benzo[D]pyrrolo[1,2-A]thiazoles and indolizino[6,7-b]indole derivatives and their use as antitumor therapeutic agents” (Academia Sinica, priority 2011, dated 2014):
Like-named read-outs stand apart in the source and are kept apart here.

Columns and labels:
CCRF-CEM/VBL = assay: In vitro cytotoxicity, XTT assay, CCRF-CEM/VBL; format: cell-based, human; settings: Table 5
Text: (§1) Human colon carcinoma HCT-116 cells and human prostate adenocarcinoma PC-3 cells were obtained from American Type Culture Collection (ATCC, Rockville, Md.). Human mammary carcinoma (MX-1) tumor cells were obtained from MSKCC cell bank. The CCRF-CEM human lymphoblastic leukemia cells and their vinblastine resistant subline (CCRF-CEM/VBL, 680-fold resistance in vitro) were obtained from Dr. William Beck of the University of Illinois, Chicago, and CCRF-CEM/Taxol (330-fold resistance in vitro). Resistant cells CCRF-CEM/taxol were produced by exposing the parent cells to increasing sublethal concentration (IC50-IC90) of paclitaxel for six months.
(§2) In preparation for in vitro cytotoxicity assays, cells were cultured at an initial density 2−5×10^4 cells per milliliter. They were maintained in a 5% CO2-humidified atmosphere at 37° C. in RPMI medium 1640 (GIBCO/BRL) containing penicillin (100 units/mL), streptomycin (100 μg/mL, GIBCO/BRL), and 5% heat-inactivated FBS. For cells grown in suspension (such as CCRF-CEM and its sublines), cytotoxicity was measured, by using XTT microculture method^23 in 96-well microtiter plates.
(§3) The cytotoxic effects of the newly synthesized compounds were determined in T-cell acute lymphocytic leukemia (CCRF-CEM) and their resistant subcell lines (CCRF-CEM/Taxol and CCRF-CEM/VBL) by the XTT assay^24 and human solid tumor cells (i.e. breast carcinoma MX-1 and colon carcinoma HCT-116) by the SRB assay^25 in a 72 h incubation using a microplate spectrophotometer as described previously.^25 After the addition of phenazine methosulfate-XTT solution, incubated at 37° C. for 6 h and absorbance at 450 and 630 nm was detected on a microplate reader (EL 340). The cytotoxicity of the newly synthesized compounds against non-small cell lung carcinoma H1299, prostate cancer PC3, oral cancer OECM-1 and glioma U87 were determined by the Alamar blue assay^26 in a 72 h incubation using a microplate spectrophotometer as described previously. After the addition of alamar blue solution, it was incubated at 37° C. for 6 h. Absorbance at 570 and 600 nm was detected on a microplate reader. IC50 values were determined from dose-effect relationship at six or seven concentrations of each drug using the CompuSyn software by Chou and Martin^27 based on the median-effect principle and plot.^28,29 Ranges given for Cisplatin were mean±SE (n=4).

colon carcinoma HCT-116 = assay: In vitro cytotoxicity, SRB assay, HCT-116; format: cell-based, human; settings: Table 6, 72 h
Text: as §1, §2, §3

glioma U87 = assay: In vitro cytotoxicity, Alamar blue assay, U87; format: cell-based, human
Experimental: (§4) Prostate cancer PC3, non-small cell lung carcinoma cells H1299, and human glioma cells U87 were purchased from the American Type Culture Collection (Rockville, Md.). OECM-1 (human gingival squamous cell carcinoma cells) was obtained from Dr C.-L. Meng (National Defense Medical College, Taiwan).^22
as §2, §3

CCRF-CEM/Taxol = assay: In vitro cytotoxicity, XTT assay, CCRF-CEM/Taxol; format: cell-based, human; settings: Table 5
Text: as §1, §2, §3

linearized pBR322DNA = assay: DNA cross-linking, alkaline agarose gel shift assay; format: biochemical; settings: 1, 10, and 20 μM; FIG. 8
Experimental: Formation of DNA cross-linking was analyzed by alkaline agarose gel electrophoresis assay. […] The reaction mixture was incubated at 37° C. for 2 h. At the end of reaction, the plasmid DNA was linearized by digestion with BamHI and followed by precipitation with ethanol. The DNA pellets were dissolved and denatured in alkaline buffer (0.5 N NaOH-10 mM EDTA). An aliquot of 20 μL of DNA solution (1000 ng) was mixed with 4 μL of 6× alkaline loading dye and then electrophoretically resolved on a 0.8% alkaline agarose gel with NaOH-EDTA buffer at 4° C. The electrophoresis was carried out at 18 V for 22 h. After staining the gels with an ethidium bromide solution, the DNA was then visualized under UV light.

prostate cancer PC3 = assay: In vitro cytotoxicity, Alamar blue assay, PC3; format: cell-based, human
Experimental: as §4, §2, §3

[1] = tested on: non-small cell lung carcinoma H1299; assay: In vitro cytotoxicity, Alamar blue assay, H1299; format: cell-based, human
Experimental: as §4, §2, §3

breast carcinoma MX-1 = assay: In vitro cytotoxicity, SRB assay, MX-1; format: cell-based, human; settings: Table 6, 72 h
Text: as §1, §2, §3

[2] = tested on: MX-1 human mammary xenograft; assay: Therapeutic efficacy in nude mice bearing MX-1 xenograft; format: in vivo
Experimental: Athymic nude mice bearing the nu/nu gene were obtained from NCI, Frederick, Md. and used for all human tumor xenografts. Male nude mice, 6 weeks or older, weighing 20-24 g or more were used. Compounds were administered via the tail vein for i.v. injection or infusion as described previously.^26 A typical formulation for chemotherapeutic studies for each drug was dissolved in DSMO to make a 25 mg/ml fresh solution, 0.4 ml of this solution was mixed with 0.3 ml of Tween 80, plus 1.3 ml to make 2 ml of 5 mg/ml solution. Bolus injection volume was 0.1-0.2 ml per mouse. Tumor volume was assessed by measuring length×width×height (or width) by using a caliper. For tumor-bearing nude mice during the course of the experiment, the body weight refers to total weight minus the weight of the tumor. All animal studies were conducted in accordance with the guidelines for the National Institute of Health Guide for the Care and Use of Animals and the protocol approved by the Institutional Animal Care and Use Committee.

[3] = tested on: human lymphoblastic leukemia (CCRF-CEM); assay: In vitro cytotoxicity, XTT assay, CCRF-CEM; format: cell-based
Text: as §1, §2, §3

oral cancer OECM-1 = assay: In vitro cytotoxicity, Alamar blue assay, OECM-1; format: cell-based, human
Experimental: as §4, §2, §3

[4] = tested on: human large cell lung carcinoma H460 xenograft; settings: combination with arsenic trioxide (ATO); background; cited from earlier work
[5] = tested on: cisplatin-resistant NTUB 1/P human bladder carcinoma xenografts; settings: combination with arsenic trioxide (ATO); background; cited from earlier work

With `CC(C)NC(=O)OCc1c(COC(=O)NC(C)C)c2sc3ccccc3n2c1-c1ccc(Cl)cc1` [Compound 20c, (1-(4-Chlorophenyl)benzo[d]pyrrolo[2,1-b]thiazole-2,3-diyl)bis(methylene)bis(iso-propylcarbamate)] the “fold of cross-resistant vs IC50 of the parent cell line, CCRF-CEM/VBL” value (CCRF-CEM/VBL; number in brackets) was 5.25 ×, the IC50 (CCRF-CEM/VBL; vinblastine-resistant subline, XTT, 72 h, read-out: Cell Growth inhibition (IC50 μM) CCRF-CEM/VBL) was 0.42 ± 0.001 µM and the IC50 (colon carcinoma HCT-116) was 1.7 ± 0.006 µM. For the same molecule, the IC50 (glioma U87; Table 6, 72 h) was 29 ± 4.49 µM, the IC50 (CCRF-CEM/Taxol; Taxol-resistant subline, XTT, 72 h, read-out: Cell Growth inhibition (IC50 μM) CCRF-CEM/Taxol) was 0.39 ± 0.004 µM and the “fold of cross-resistant vs IC50 of the parent cell line, CCRF-CEM/Taxol” value (CCRF-CEM/Taxol; number in brackets) was 4.87 ×. For the same molecule, the DNA interstrand cross-linking (linearized pBR322DNA) was “able to bind covalently (interstrand cross-linking) with DNA”, the IC50 (prostate cancer PC3; Table 6, 72 h) was 13.7 ± 1.28 µM and the IC50 ([1]; Table 6, 72 h) was 8.75 ± 0.88 µM. For the same molecule, the IC50 (breast carcinoma MX-1) was 1.19 ± 0.004 µM, the “complete tumor remission, mice” value ([2]; 20 mg/kg, Q2Dx3 and then 25 mg/kg, Q2Dx5, on D24, 26, and 26, FIG. 5A) was “all three” and the IC50 ([3]; Table 5, 72 h incubation, read-out: Cell Growth inhibition (IC50 μM) CCRF-CEM) was 0.08 ± 0.0003 µM. For the same molecule, the IC50 (oral cancer OECM-1; Table 6, 72 h) was 7.54 ± 0.95 µM.

Work on `CCn1c2c(c3ccccc31)Cc1c(CO)c(CO)c(C)n1C2` [Compound 33b, [6-Ethyl-3-methyl-6,11-dihydro-5H-indolizino[6,7-b]indole-1,2-diyl]dimethanol] yielded an IC50 (glioma U87; Homo sapiens, Table 7, 72 h) of 6.26 ± 1.43 µM, a melting point of 216 to 217 °C and an IC50 (prostate cancer PC3; Homo sapiens, Table 7, 72 h) of 2.66 ± 0.47 µM. For the same molecule, the IC50 ([1]; Homo sapiens, NCI-H1299, Table 7, 72 h) was 2.97 ± 0.55 µM, the “complete tumor remission (CR)” value ([2]; FIG. 6, i.v. inj., n=4) was “CR was achieved” and the IC50 ([3]; Homo sapiens, CCRF-CEM, Table 7, 72 h, read-out: IC50 (μM) CCRF/CEM) was 0.1 ± 0.002 µM. It also gave an IC50 (oral cancer OECM-1; Homo sapiens, OECM1, Table 7, 72 h) of 1.17 ± 0.89 µM.

In the case of `CNC(=O)OCc1c(COC(=O)NC)c(-c2ccc(OC)cc2)n2c1Cc1ccccc1-2` [BO-1012], the tumor suppression [4] is listed as “more than 82%” and the tumor suppression [5] is listed as greater than 92%.
